Measured values as given in patent US20120231972A1, “Probe Compound for Detecting and Isolating Enzymes and Means and Methods Using the Same” (priority 2009, published 2012).
≈ marks a conversion by molar mass, not a printed value.

Assay: physchem
Type: physicochemical
Conditions: water

CC[N+]1=C(/C=C/C=C2/N(CCCCCC(=O)N[C@H](Cc3c[nH]cn3)C(=O)O)c3ccc(S(=O)(=O)[O-])cc3C2(C)C)C(C)(C)c2cc(S(=O)(=O)NCCCC(=O)OCCN(C)C)ccc21 [compound (E), Cy3-His-4-amino-3-butyric acid (N,N-dimethylamino) ethylester]
solubility: ~240 mM (≈ 222 mg/mL)
